Read-outs that look alike come from different tables or passages of the source. Non-standard residues stand in square brackets, D forms with d. Residues, ends and D or L forms follow the SMILES beside them. Hyp = O=C(O)[C@@H]1C[C@@H](O)CN1
Legend:
[1] = Bioavailability after first pass metabolism in HIEC-6/HepG2 co-culture; conditions: human
Experimental: (§1) A HIEC-6/HepG2 cell co-culture system was used to determine the bioavailability of targeted BAPs from CHs after digestion (Figure 1). HIEC-6 cells and HepG2 were cultured separately but then later combined in a transwell system using polyester (PET) ThinCerts (Greiner Bio-One, Cat no. 662641, Monroe, NC, USA) and corresponding 24 multiwell cell culture plates (Greiner Bio-One, Cat no. 662160, Monroe, NC, USA). […] HIEC-6 cells were seeded onto ThinCerts at 1 × 10^5 cells/well. The medium was changed every 2 days and cells were grown for a total of 8–9 days. […] HepG2 cells were then added to the basolateral side of the transwell (1 million cells/mL). […] At time 0, the apical medium was replaced with media containing 2 mg/mL reconstituted freeze-dried (FD) CH digesta (either CH-GL and CH-OPT), or only media (blank). The co-culture and treatments were incubated for 2 h at 37 °C, 5% CO2. After 2 h, the inserts containing HIEC-6 cells were removed, and the plates containing HepG2 cells were incubated for another 3 h. Samples were taken from the apical and basolateral sides at times 0, 2 and 5 h, and microcentrifuged at 2000 rpm for 15 min. The supernatant was collected and used for subsequent peptide analysis (see Section 2.7). Three independent experiments assessing bioavailability were completed. Controls included inserts without seeded cells (TEER control) and seeded wells with no CHs treatment (only media; negative control).
(§2) Samples were purified from cellular and protein debris by adapting the use of Amicon® Ultra-0.5 Centrifugal Filter Devices (Millipore, UFC501096, Burlington, Massachusetts, USA). Samples from cell culture were processed as per the manufacturer’s instructions, however, the filtrate (comprising of peptides) was not discarded and instead used for analysis. A CE system (Capel 205M; Lumex Instruments, Fraserview Place, BC) was used for the targeted quantification of 5 peptides (Gly-Pro, Hyp-Gly, Ala-Hyp, Pro-Hyp, Gly-Pro-Hyp). The instrument was set for 20 °C and the separation capillary (Molex, 2000019, Lisle, Illinois, US) was similar to previous CE methods for collagen analysis [36]; 60 cm in total length, 53 cm effective length, and 75 µm inside diameter. Injections were completed using pressure (30 mbar for 10 s) at 0 kV and analysis was completed at 20 kV using 0 mbar for 1199 s at 205 nm. A 0.1 M phosphate buffer (pH 2.4) was used for rinsing and as running buffer. Filtered samples were diluted with running buffer before injection. Before sample injection, the capillary was rinsed with MilliQ water, 0.5 M NaOH and running buffer, each for 5 min. The electropherograms were processed to determine peak area using the software Elforun (Lumex Instruments Canada, Version 4.2.4, Mission, BC, Canada). Quantification of each peptide, based on peak area, was performed using external standards and corresponding calibration curves, where the linearity was assessed by the coefficients of determination, R^2. The mean of three measurements for each treatment was taken.
(§3) Bioavailability, after first pass metabolism, was expressed as a percentage of final and initial peptide digesta values, as described in Sadeghi Ekbatan et al. (2018) [8]. Bioavailability (%) = Peptide content after HepG2 incubation (Basolateral 5 h)/Initial amount of peptide (Apical 0 h) × 100

HepG2 cells [2] = test: Hepatic first pass effect on transported peptides after HepG2 incubation; conditions: basolateral 5 h as percentage of basolateral 2 h, mean ± SEM
Experimental: as §1
(§4) Samples were purified from cellular and protein debris by adapting the use of Amicon® Ultra-0.5 Centrifugal Filter Devices (Millipore, UFC501096, Burlington, Massachusetts, USA). Samples from cell culture were processed as per the manufacturer’s instructions, however, the filtrate (comprising of peptides) was not discarded and instead used for analysis. A CE system (Capel 205M; Lumex Instruments, Fraserview Place, BC) was used for the targeted quantification of 5 peptides (Gly-Pro, Hyp-Gly, Ala-Hyp, Pro-Hyp, Gly-Pro-Hyp). […] Injections were completed using pressure (30 mbar for 10 s) at 0 kV and analysis was completed at 20 kV using 0 mbar for 1199 s at 205 nm. A 0.1 M phosphate buffer (pH 2.4) was used for rinsing and as running buffer. Filtered samples were diluted with running buffer before injection. Before sample injection, the capillary was rinsed with MilliQ water, 0.5 M NaOH and running buffer, each for 5 min. The electropherograms were processed to determine peak area using the software Elforun (Lumex Instruments Canada, Version 4.2.4, Mission, BC, Canada). Quantification of each peptide, based on peak area, was performed using external standards and corresponding calibration curves, where the linearity was assessed by the coefficients of determination, R^2. The mean of three measurements for each treatment was taken.
(§5) Hepatic first pass effect (%) was calculated as:Hepatic effect (%) = Peptide content after incubation with HepG2 (Basolateral 5 h)/Content of peptide available for liver metabolism (Basolateral 2 h) × 100

[3] = Peptide transport and apparent permeability across the HIEC-6 intestinal layer of a HIEC-6/HepG2 transwell co-culture; conditions: human; for Papp A→B at 2 h: Apparent permeability coefficient (Papp), mean ± SEM
Experimental: as §1, §2
(§6) The apparent permeability coefficient (Papp) was calculated similarly to Song et al. (2020) [7], using the standard equation:Papp = ΔQ/(Δt × A × C0) where Δt is the incubation time (s), A is the surface area of the insert filter membrane (cm^2), C0 is the initial concentration of peptides in the apical compartment at time 0 h (μM), and ΔQ is the amount of peptide transported within a given period (μmol/s). The incubation timepoint (Δt) used was representative of the intestinal transport phase (2 h timepoint).

HIEC-6 cells [4] = test: as above; conditions: basolateral 2 h vs apical 0 h, mean ± SEM
Experimental: as §1, §2, §6

in vitro [5] = conditions: human, Apparent permeability coefficient (Papp)
Experimental: as §1, §2, §6

[6] = human, in vivo
HIEC-6/HepG2 co-culture = conditions: human
Experimental: as §1, §2, §3

HIEC-6 cells [7] = system: HIEC-6 cells
Experimental: as §1, §2, §6

Caco-2 cells = conditions: cited from earlier work
HepG2 cells [8] = system: HepG2 cells
Experimental: as §1, §4, §5

[9] = human, in vivo; cited from earlier work
in vitro [10] = conditions: human
Experimental: as §1, §2, §3

[11] = Peptide bioavailability after first pass metabolism

| Hepatic effect (%) on peptide content following HepG2 incubation (HepG2 cells [2]; CH-GL) | Hepatic effect (%) on peptide content following HepG2 incubation (HepG2 cells [2]; CH-OPT) | Papp A→B at 2 h ([3]; CH-GL treatment) | Peptide transport (%) across intestinal epithelium (HIEC-6 cells [4]; CH-GL digesta 2 mg/mL apical) | Peptide transport (%) across intestinal epithelium (HIEC-6 cells [4]; CH-OPT digesta 2 mg/mL apical) | Papp A→B at 2 h (in vitro [5]) | bioavailability at 5 h (in vitro [10]; [11]) | Structure (SMILES) | Papp (Caco-2 cells; Caco-2) | further results |
| --- | --- | --- | --- | --- | --- | --- | --- | --- | --- |
| 304.9 ± 57.2% | 198.0 ± 107.6% | 0.725 ± 0.195 ×10⁻⁶ cm/s | 9.27 ± 2.49% | 26.4 ± 5.78% | – | – | C[C@H](N)C(=O)N1C[C@H](O)C[C@H]1C(=O)O [Ala-Hyp] (H-Ala-[Hyp]-OH; N-terminus and C-terminus assumed) | – | bioavailability at 5 h ([1]; Average bioavailability after first pass metabolism, average): > 20%; Papp at 2 h [3]: 0.725 ± 0.195 ×10⁻⁶ cm/s; Papp A→B at 2 h ([3]; CH-OPT treatment): 1.03 ± 0.226 ×10⁻⁶ cm/s |
| – | – | – | – | – | ~9 ×10⁻⁶ cm/s | – | NCC(=O)N1CCC[C@H]1C(=O)N1C[C@H](O)C[C@H]1C(=O)O [Gly-Pro-Hyp] (H-Gly-Pro-[Hyp]-OH; N-terminus and C-terminus assumed) | 1.09 ± 0.03 × 10^−6 cm/s | Increase of plasma Gly-Pro-Hyp content [6]: 162.5%; Bioavailability (%) after first pass metabolism (HIEC-6/HepG2 co-culture): none was observed; Apparent permeability coefficient (Papp) (HIEC-6 cells [7]): no apparent permeability coefficient could be determined; Hepatic effect (%) on peptide content following HepG2 incubation (HepG2 cells [8]): 22.32 ± 5.09%; Gly-Pro-Hyp content in the plasma after 2 h [9]: ~ 1050 µM; Initial Gly-Pro-Hyp content in the plasma [9]: ~ 400 µM; bioavailability at 5 h (in vitro [10]; Bioavailability (%) after first pass metabolism): 12.2 ± 1.12% |
| – | – | – | – | – | – | > 32% | NCC(=O)N1CCC[C@H]1C(=O)O [Gly-Pro] (H-Gly-Pro-OH; N-terminus and C-terminus assumed) | – | – |
| – | – | – | – | – | 6.74 ± 1.2 ×10⁻⁶ cm/s | > 32% | O=C(O)CNC(=O)[C@@H]1C[C@@H](O)CN1 [Hyp-Gly] (H-[Hyp]-Gly-OH; N-terminus and C-terminus assumed) | 1e-05 cm/s | Apparent permeability coefficient (Papp) (HIEC-6 cells [7]; human, 2 h): 5.593 ± 2.476 × 10^−6 cm/s; Transport (%) (Caco-2 cells): 22.63 ± 5.19% |
| 151.4 ± 24.3% | 63.63 ± 8.63% | 1.91 ± 0.479 ×10⁻⁶ cm/s | 19.18 ± 4.81% | 24.15 ± 1.42% | – | – | O=C(O)[C@@H]1C[C@@H](O)CN1C(=O)[C@@H]1CCCN1 [Pro-Hyp] (H-Pro-[Hyp]-OH; N-terminus and C-terminus assumed) | – | Papp (Caco-2 cells; Caco-2, LC-MS/MS, ref 15 (Sontakke et al. 2016)): 0.13 ± 0.03 × 10^−6 cm/s; Papp (Caco-2 cells; cell model not printed at the place, ref 40 (Feng et al. 2017)): 1.45 ± 0.17 × 10^−6 cm/s; bioavailability at 5 h ([1]; Bioavailability (%) after first pass metabolism, CH-GL, basolateral 5 h as percentage of apical 0 h, mean ± SEM): 26.8 ± 3.97%; bioavailability at 5 h ([1]; Bioavailability (%) after first pass metabolism, CH-OPT, basolateral 5 h as percentage of apical 0 h, mean ± SEM): 15.4 ± 2.6% |

Source: paper PMC8928955, “Assessment of Bioavailability after In Vitro Digestion and First Pass Metabolism of Bioactive Peptides from Collagen Hydrolysates” (Current Issues in Molecular Biology, 2021)
